Key:
Assay in all cases: standardised AUC of viability dose-response curve (72 h) (fraction (0-1)); higher = less growth inhibition (more resistant)
[1] = system: MES-SA
In short: (§1)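 Sarcoma cell lines in 384-well plates were treated in triplicate for 72 h with 2.5 µl of a compound dilution series, made in 1:3 steps from 10 mM to 0.0002 mM on the compound plate. ATPLite viability was scaled from 1 (full) to 0 (none) and fitted per drug and cell line with a four-parameter log-logistic model. The values are standardised areas under the dose-response curve in log-dose space, from a modified drexplorer computeAUC. On that scale, 1 means no response and 0 means full response.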

[2] = system: KHOS-NP
In short: as §1

[3] = system: SYO-1
In short: as §1

[4] = system: A204
In short: as §1

[5] = system: SW684
In short: as §1

[6] = system: SW982
In short: as §1

[7] = system: SK-ES-1
In short: as §1

[8] = system: SW872
In short: as §1

[9] = system: KHOS-240S
In short: as §1

[10] = system: SW1353
In short: as §1

[11] = system: SK-LMS-1
In short: as §1

[12] = system: G401
In short: as §1

[13] = system: VA-ES-BJ
In short: as §1

[14] = system: HT1080
In short: as §1

[15] = system: RD
In short: as §1

[16] = system: HS729
In short: as §1

[17] = system: RD-ES
In short: as §1

SMILES | standardised AUC [1] | standardised AUC [2] | standardised AUC [3] | standardised AUC [4] | standardised AUC [5] | standardised AUC [6] | standardised AUC [7] | standardised AUC [8] | standardised AUC [9] | standardised AUC [10] | standardised AUC [11] | standardised AUC [12] | standardised AUC [13] | standardised AUC [14] | standardised AUC [15] | standardised AUC [16] | standardised AUC [17]
CN(C)C/C=C/C(=O)Nc1cc2c(Nc3ccc(F)c(Cl)c3)ncnc2cc1O[C@H]1CCOC1 [AFATINIB] | 0.807 | 0.939 | 0.795 | 0.733 | 0.85 | 0.759 | 0.745 | 0.819 | 0.846 | 0.729 | 0.837 | 0.838 | 0.825 | 0.926 | 0.801 | 0.849 | 0.823
COc1cc(Nc2ncc3c(n2)-c2ccc(Cl)cc2C(c2c(F)cccc2OC)=NC3)ccc1C(=O)O [ALISERTIB] | 0.678 | 0.95 | 0.732 | 0.876 | 0.902 | 0.734 | 0.558 | 0.895 | 0.835 | 0.933 | 0.865 | 0.811 | 0.808 | 0.873 | 0.801 | 0.889 | 0.656
CCS(=O)(=O)N1CC(CC#N)(n2cc(-c3ncnc4[nH]ccc34)cn2)C1 [BARICITINIB] | 0.972 | 0.986 | 0.985 | 0.962 | 0.99 | 0.99 | 1 | 0.992 | 0.981 | 0.987 | 0.985 | 0.995 | 0.997 | 0.989 | 1 | 0.977 | 1
COc1cc(N2CCC(N3CCN(C)CC3)CC2)ccc1Nc1ncc(Cl)c(Nc2ccccc2P(C)(C)=O)n1 [BRIGATINIB] | 0.908 | 0.889 | 0.681 | 0.833 | 0.904 | 0.649 | 0.713 | 0.778 | 0.766 | 0.77 | 0.883 | 0.816 | 0.763 | 0.907 | 0.694 | 0.728 | 0.7
Cc1cc2c(F)c(Oc3ncnn4cc(OC[C@@H](C)OC(=O)[C@H](C)N)c(C)c34)ccc2[nH]1 [BRIVANIB ALANINATE] | 0.964 | 0.966 | 0.943 | 0.967 | 0.989 | 1 | 0.986 | 1 | 0.974 | 0.995 | 0.941 | 0.991 | 0.994 | 0.979 | 0.987 | 0.977 | 0.996
O=C(c1ccc(F)c(F)c1Nc1ccc(I)cc1F)N1CC(O)([C@@H]2CCCCN2)C1 [COBIMETINIB] | 0.909 | 0.657 | 0.878 | 0.801 | 0.748 | 0.867 | 0.931 | 0.633 | 0.786 | 0.844 | 0.628 | 0.732 | 0.756 | 0.661 | 0.653 | 0.899 | 0.953
Cc1c2oc3c(C)ccc(C(=O)N[C@@H]4C(=O)N[C@H](C(C)C)C(=O)N5CCC[C@H]5C(=O)N(C)CC(=O)N(C)[C@@H](C(C)C)C(=O)O[C@@H]4C)c3nc-2c(C(=O)N[C@@H]2C(=O)N[C@H](C(C)C)C(=O)N3CCC[C@H]3C(=O)N(C)CC(=O)N(C)[C@@H](C(C)C)C(=O)O[C@@H]2C)c(N)c1=O [DACTINOMYCIN] | 0.258 | 0.451 | 0.444 | 0.365 | 0.778 | 0.396 | 0.272 | 0.56 | 0.408 | 0.492 | 0.566 | 0.348 | 0.453 | 0.464 | 0.432 | 0.504 | 0.418
C[C@@H]1CN(C(=O)c2ccc(NC(=O)c3cc(O[C@H](C)c4c(Cl)ccc(F)c4Cl)c(N)nn3)cc2)C[C@H](C)N1 [ENSARTINIB] | 0.832 | 0.975 | 0.816 | 0.937 | 0.936 | 0.808 | 0.79 | 0.891 | 0.895 | 0.933 | 0.845 | 0.875 | 0.853 | 0.929 | 0.852 | 0.878 | 0.805
C=CC(=O)N1CCC(CNc2ncnc(N)c2-c2ccc(Oc3ccccc3)cc2)CC1 [EVOBRUTINIB] | 0.98 | 0.995 | 0.975 | 0.943 | 0.998 | 0.994 | 0.945 | 0.987 | 0.981 | 0.947 | 0.981 | 0.979 | 0.992 | 0.984 | 0.996 | 0.929 | 0.989
CNC(=O)c1c(C)oc2cc(Oc3ncnc4cc(OC)c(OC)cc34)ccc12 [FRUQUINTINIB] | 0.97 | 0.975 | 0.79 | 0.787 | 0.979 | 0.986 | 0.968 | 0.925 | 0.937 | 0.932 | 0.96 | 0.934 | 0.964 | 0.968 | 0.993 | 0.856 | 0.984
COc1cc2ncnc(Nc3ccc(F)c(Cl)c3)c2cc1OCCCN1CCOCC1 [GEFITINIB] | 0.948 | 0.994 | 0.945 | 0.948 | 0.988 | 0.927 | 0.904 | 0.959 | 0.962 | 0.955 | 0.942 | 0.963 | 0.989 | 0.983 | 0.973 | 0.963 | 0.961
CCc1nc(C(N)=O)c(Nc2ccc(N3CCC(N4CCN(C)CC4)CC3)c(OC)c2)nc1NC1CCOCC1 [GILTERITINIB] | 0.785 | 0.898 | 0.665 | 0.817 | 0.791 | 0.674 | 0.663 | 0.735 | 0.814 | 0.857 | 0.823 | 0.811 | 0.793 | 0.899 | 0.748 | 0.659 | 0.655

Reference: the supplement of paper PMC10883282
